Laboratory results reported in patent US20210077370A1, “Use of compositions comprising dihydroxyacetone for the protection of skin or hair against infrared irradiation” (Merck Patent GmbH, priority 2019, published 2021).

What was measured:
tropoelastin = assay: Tropoelastin immunostaining on human skin explants after IR-A irradiation; format: cell-based; settings: papillary dermis
Protocol: (§1) The product tested is a solution of 2% DHA in water. This was done to avoid formulation effects of auxiliary ingredients.
(§2) Human skin explants were prepared on an abdominoplasty coming from a person (Fitzpatrick skin phototype II-Ill). The explants were kept in survival in BEM culture medium (BIO-EC's Explants Medium) at 37° C. in a humid, 5%-CO2 atmosphere.
(§3) On day 0 (D0), day 3 (D3) and day 4 (D4; 3 hours before IR irradiation), day 5 (D5) and day 6 (D6), the product was applied topically followed by 10 minutes of drying. […] The culture medium was half renewed (1 ml/well) on day 3 and day 5. Irradiation of the explants were done using an infrared lamp (Dr FISCHER 1000 W, 235V, 2500K, 760-3000 nm), for 5040 s (720 J/cm^2). Water filter and IR760 filter were also used to have the following IR range of 700 nm to 1150 nm. The unirradiated batches were kept in HBSS (Hank's Balanced Saline Solution) in the dark. At the end of the irradiation, all the explants were put back in 2 ml of fresh BEM culture medium.
(§4) The explants temperature was measured before and after IR-A irradiation. To avoid temperature-driven side-effects, the explants temperature was maintained at 37° C. (max. 39° C.) by specially adapted refreshing system.
The nuclei were counterstained by propidium iodide.
The immunostaining was assessed by microscopical observation.

MMP1 = MMP1 immunostaining on human skin explants after IR-A irradiation; format: cell-based
Protocol: as §1, §2, §3, §4
The immunostaining was performed using an automated slide processing system (Autostainer, Dako) and assessed by microscopical observation.

Question: With `O=C(CO)CO` [DHA, 1,3-dihydroxy-2-propanone] as the molecule, how does the “protection of the explants after irradiation to IR-A (tropoelastin)” value (tropoelastin; day 7) read?
Answer: excellent protection

Question: And the “Tropoelastin levels after IR-A irradiation and DHA treatment versus blank untreated explant” value (tropoelastin; day 7, statistically not different (p>0.1))?
Answer: comparable to those of blank untreated explant

Question: What about the “MMP-1 decrease versus irradiated blank, epidermis” value (MMP1; epidermis, IR-A irradiated, day 5, p<0.01) of the same molecule?
Answer: 65%

Question: What about the “MMP1 in the epidermis (% surface)” value (MMP1; living epidermis, IR-A irradiated explant + product applied topically, day 5) of the same molecule?
Answer: 8.4 % surface
